In patent US20190077802A1, “DIFLUORO-(2-SUBSTITUTED CARBAMOYL-1,6-DIAZA-BICYCLO [3.2.1] OCT-6-YLOXY) ACETIC ACID COMPOUNDS AND THEIR USE IN TREATMENT OF BACTERIAL INFECTIONS” (WOCKHARDT LIMITED, priority 2015, published 2019):
In brackets after ≈: the same amount, converted by molar mass.

Columns and labels:
Test in all cases: Agar dilution MIC (CLSI)
[1] = system: E. coli 13352; type: cell-based; settings: Escherichia coli, Mueller Hinton Agar
Description: (§1) The biological activity of representative compounds according to the invention against various bacterial strains was investigated. In a typical study, overnight grown bacterial cultures were diluted appropriately and inoculated on the agar media containing doubling dilutions of the test compounds. Observations for growth or no growth was performed after 16-20 hours of incubation at 35±2° C. in the ambient air. The overall procedure was performed as per Clinical and Laboratory Standards Institute (CLSI) recommendations, (Clinical and Laboratory Standards Institute (CLSI), Performance Standards for Antimicrobial Susceptibility Testing, 20th Informational Supplement, M07-A9, Volume 32, No. 2, 2012). Molten Mueller Hinton Agar (MHA) (BD, USA) containing serial dilutions of each antibacterial agent were poured on to the plates and allowed to solidify. Appropriate suspensions from the freshly grown cultures were prepared in normal saline so that about 10^4 CFU/spot of the organism was delivered on to the drug containing agar plates using automated multipoint inoculator (Mast, UK). The plates were incubated in Biochemical oxygen demand (BOD) incubator at 37° C. for 18 hours and then examined for growth.
(§2) The Table 2 depicts the antibacterial activity profile of compounds according to present invention against various multidrug resistant bacterial strains.

[2] = system: E. coli M 36; type: cell-based; settings: Escherichia coli, M36, Mueller Hinton Agar
Description: as §1, §2

[3] = system: E. coli M 138; type: cell-based; settings: Escherichia coli, M138, Mueller Hinton Agar
Description: as §1, §2

[4] = system: E. coli M 49; type: cell-based; settings: Escherichia coli, M49, Mueller Hinton Agar
Description: as §1, §2

[5] = system: K. pneumoniae H 523; type: cell-based; settings: Klebsiella pneumoniae, H523, Mueller Hinton Agar
Description: as §1, §2

[6] = system: E. coli 7 MP; type: cell-based; settings: Escherichia coli, Mueller Hinton Agar
Description: as §1, §2

[7] = system: K. pneumoniae H 521; type: cell-based; settings: Klebsiella pneumoniae, H521, Mueller Hinton Agar
Description: as §1, §2

[8] = system: E. coli 13353; type: cell-based; settings: Escherichia coli, Mueller Hinton Agar
Description: as §1, §2

[9] = system: E. coli 13351; type: cell-based; settings: Escherichia coli, Mueller Hinton Agar
Description: as §1, §2

[10] = system: K. pneumoniae H 525; type: cell-based; settings: Klebsiella pneumoniae, H525, Mueller Hinton Agar
Description: as §1, §2

[11] = system: E. coli S 18; type: cell-based; settings: Escherichia coli, S18, Mueller Hinton Agar
Description: as §1, §2

[12] = system: K. pneumoniae H 522; type: cell-based; settings: Klebsiella pneumoniae, H522, Mueller Hinton Agar
Description: as §1, §2

[13] = system: E. coli M 50; type: cell-based; settings: Escherichia coli, M50, Mueller Hinton Agar
Description: as §1, §2

[14] = system: KP ATCC 700603; type: cell-based, K. pneumoniae; settings: Klebsiella pneumoniae, ATCC700603, Mueller Hinton Agar
Description: as §1, §2

[15] = system: E. coli H 483; type: cell-based; settings: Escherichia coli, H483, Mueller Hinton Agar
Description: as §1, §2

| SMILES | MIC [1] | MIC [2] | MIC [3] | MIC [4] | MIC [5] | MIC [6] | MIC [7] | MIC [8] | MIC [9] | MIC [10] | MIC [11] | MIC [12] | MIC [13] | MIC [14] | MIC [15] |
| --- | --- | --- | --- | --- | --- | --- | --- | --- | --- | --- | --- | --- | --- | --- | --- |
| O=C(NOC1CCNC1)[C@@H]1CC[C@@H]2CN1C(=O)N2OC(F)(F)C(=O)O (some centres unmarked) [Example 3] | 4 µg/mL (≈ 11 µM) | 4 µg/mL (≈ 11 µM) | 4 µg/mL (≈ 11 µM) | 8 µg/mL (≈ 22 µM) | 4 µg/mL (≈ 11 µM) | 8 µg/mL (≈ 22 µM) | 4 µg/mL (≈ 11 µM) | 4 µg/mL (≈ 11 µM) | 4 µg/mL (≈ 11 µM) | 4 µg/mL (≈ 11 µM) | 16 µg/mL (≈ 43.9 µM) | 4 µg/mL (≈ 11 µM) | 4 µg/mL (≈ 11 µM) | > 32 µg/mL | > 32 µg/mL |
| O=C(NOC[C@@H]1CCCCN1)[C@@H]1CC[C@@H]2CN1C(=O)N2OC(F)(F)C(=O)O [Example 5] | 4 µg/mL (≈ 10.2 µM) | 4 µg/mL (≈ 10.2 µM) | 4 µg/mL (≈ 10.2 µM) | 8 µg/mL (≈ 20.4 µM) | 4 µg/mL (≈ 10.2 µM) | 8 µg/mL (≈ 20.4 µM) | 4 µg/mL (≈ 10.2 µM) | 4 µg/mL (≈ 10.2 µM) | 8 µg/mL (≈ 20.4 µM) | 4 µg/mL (≈ 10.2 µM) | 4 µg/mL (≈ 10.2 µM) | 4 µg/mL (≈ 10.2 µM) | 4 µg/mL (≈ 10.2 µM) | > 32 µg/mL |  |
| O=C(NOC[C@@H]1CCCCCN1)[C@@H]1CC[C@@H]2CN1C(=O)N2OC(F)(F)C(=O)O [Example 7] | 2 µg/mL (≈ 4.92 µM) | 4 µg/mL (≈ 9.84 µM) | 4 µg/mL (≈ 9.84 µM) | 2 µg/mL (≈ 4.92 µM) | 2 µg/mL (≈ 4.92 µM) | 4 µg/mL (≈ 9.84 µM) | 2 µg/mL (≈ 4.92 µM) | 4 µg/mL (≈ 9.84 µM) | 2 µg/mL (≈ 4.92 µM) | 2 µg/mL (≈ 4.92 µM) |  | 2 µg/mL (≈ 4.92 µM) | 2 µg/mL (≈ 4.92 µM) | > 32 µg/mL |  |
| NCCONC(=O)[C@@H]1CC[C@@H]2CN1C(=O)N2OC(F)(F)C(=O)O [Example 8] | 4 µg/mL (≈ 11.8 µM) | 2 µg/mL (≈ 5.91 µM) | 4 µg/mL (≈ 11.8 µM) | 4 µg/mL (≈ 11.8 µM) | 4 µg/mL (≈ 11.8 µM) | 8 µg/mL (≈ 23.6 µM) | 4 µg/mL (≈ 11.8 µM) | 4 µg/mL (≈ 11.8 µM) | 4 µg/mL (≈ 11.8 µM) | 4 µg/mL (≈ 11.8 µM) | 4 µg/mL (≈ 11.8 µM) | 4 µg/mL (≈ 11.8 µM) | 4 µg/mL (≈ 11.8 µM) | > 32 µg/mL | > 32 µg/mL |

Second part, the molecule after the results:

| MIC [1] | MIC [2] | MIC [3] | MIC [4] | MIC [5] | MIC [6] | MIC [7] | MIC [8] | MIC [9] | MIC [10] | MIC [11] | MIC [12] | MIC [13] | MIC [14] | MIC [15] | SMILES |
| --- | --- | --- | --- | --- | --- | --- | --- | --- | --- | --- | --- | --- | --- | --- | --- |
| 2 µg/mL (≈ 5.29 µM) | 2 µg/mL (≈ 5.29 µM) | 2 µg/mL (≈ 5.29 µM) | 8 µg/mL (≈ 21.1 µM) | 2 µg/mL (≈ 5.29 µM) | 4 µg/mL (≈ 10.6 µM) | 4 µg/mL (≈ 10.6 µM) | 2 µg/mL (≈ 5.29 µM) | 2 µg/mL (≈ 5.29 µM) | 2 µg/mL (≈ 5.29 µM) | 2 µg/mL (≈ 5.29 µM) | 2 µg/mL (≈ 5.29 µM) | 2 µg/mL (≈ 5.29 µM) | > 32 µg/mL |  | O=C(NOC[C@@H]1CCCN1)[C@@H]1CC[C@@H]2CN1C(=O)N2OC(F)(F)C(=O)O [Example 1] |
| 1 µg/mL (≈ 2.64 µM) | 0.5 µg/mL (≈ 1.32 µM) | 1 µg/mL (≈ 2.64 µM) | 2 µg/mL (≈ 5.29 µM) | 1 µg/mL (≈ 2.64 µM) | 2 µg/mL (≈ 5.29 µM) | 1 µg/mL (≈ 2.64 µM) | 0.5 µg/mL (≈ 1.32 µM) | 1 µg/mL (≈ 2.64 µM) | 1 µg/mL (≈ 2.64 µM) |  | 1 µg/mL (≈ 2.64 µM) | 1 µg/mL (≈ 2.64 µM) | > 32 µg/mL |  | O=C(NOC[C@H]1CCCN1)[C@@H]1CC[C@@H]2CN1C(=O)N2OC(F)(F)C(=O)O [Example 2] |
| 1 µg/mL (≈ 2.55 µM) | 1 µg/mL (≈ 2.55 µM) | 2 µg/mL (≈ 5.1 µM) | 4 µg/mL (≈ 10.2 µM) | 1 µg/mL (≈ 2.55 µM) | 2 µg/mL (≈ 5.1 µM) | 2 µg/mL (≈ 5.1 µM) | 1 µg/mL (≈ 2.55 µM) |  | 1 µg/mL (≈ 2.55 µM) | 2 µg/mL (≈ 5.1 µM) | 1 µg/mL (≈ 2.55 µM) | 2 µg/mL (≈ 5.1 µM) | > 32 µg/mL | > 32 µg/mL | O=C(NOC[C@H]1CCCCN1)[C@@H]1CC[C@@H]2CN1C(=O)N2OC(F)(F)C(=O)O [Example 4] |
| 2 µg/mL (≈ 4.92 µM) | 1 µg/mL (≈ 2.46 µM) | 2 µg/mL (≈ 4.92 µM) | 8 µg/mL (≈ 19.7 µM) | 2 µg/mL (≈ 4.92 µM) | 4 µg/mL (≈ 9.84 µM) | 2 µg/mL (≈ 4.92 µM) | 1 µg/mL (≈ 2.46 µM) | 2 µg/mL (≈ 4.92 µM) | 1 µg/mL (≈ 2.46 µM) | 2 µg/mL (≈ 4.92 µM) | 2 µg/mL (≈ 4.92 µM) | 2 µg/mL (≈ 4.92 µM) | > 32 µg/mL | > 32 µg/mL | O=C(NOC[C@H]1CCCCCN1)[C@@H]1CC[C@@H]2CN1C(=O)N2OC(F)(F)C(=O)O [Example 6] |
